Experimental findings from patent US20240093251A1, “Reactivity of Nitrile Hydratase by Aldehyde” (Mitsubishi Chemical Corporation, priority 2021, published 2024) are described below.

Counter-ions that a name gives are not always drawn.

Format in all cases: biochemical
The subject of experiment [1] is nitrile hydratase. Briefly: Test Example 1: effect of compounds on the amide formation reaction with Rhodococcus rhodochrous J-1 bacterial cells. The note with it: hydrocyanic acid 2.0 ppm in acrylonitrile, 25° C. The protocol: (§1) Acrylonitrile was prepared so as to have a hydrocyanic acid concentration of 2.0 ppm.
A diluted solution containing an aldehyde compound diluted with a phosphate buffer (pH7.0) so as to obtain a concentration of 5 ppm or 10 ppm in the reaction solution, was added, and finally the phosphate buffer (pH7.0) was added to obtain a total amount of 6.2 g. The obtained solution was stirred while the temperature thereof was controlled at 25° C. To this solution, acrylonitrile (4.8 mL (acrylamide 50% equivalent, 38 wt %)) was added to initiate a reaction. At the time points of 3.5, 4.5, 5.0, and 6.0 hours later, the reaction solution was collected and the concentration of acrylonitrile was measured by gas chromatography (column: PoraPack-PS (manufactured by Waters Corporation), 1 m, 210° C., carrier gas: helium, detector: FID).
(§2) The concentration ratio can be obtained in accordance with the following expression:
(§3) Concentration ratio [%]=(acrylonitrile concentration of the case where aldehyde was added/the case where aldehyde was not added)×100

The test system of experiment [2] is nitrile hydratase. Briefly: Amide formation reaction from acrylonitrile with Rhodococcus rhodochrous J-1 bacterial cells, acetaldehyde in acrylonitrile (Examples 1-4). The note with it: for Concentration ratio (4 hr) (acrylonitrile concentration with aldehyde / without aldehyde x100): 20° C. The protocol:
Rhodococcus rhodochrous J-1 strain (FERMBP-1478) having nitrile hydratase activity was aerobically cultured in a medium (pH7.0) containing glucose (2.0%), urea (1.0%), peptone (0.5%), yeast extract (0.3%) and cobalt chloride (0.05%) at 30° C. The medium was washed with a 50 mM phosphate buffer (pH7.0) to obtain a bacterial suspension (3% on a dry-cell basis).
A cyan 1000-ppm standard solution (manufactured by Hayashi Pure Chemical Ind., Ltd.) was added to acrylonitrile for industrial use (manufactured by Mitsubishi Chemical Corporation) such that the hydrocyanic acid concentration became 2.1 ppm on a weight basis. […]
To a glass case (internal volume: 13.5 ml) with a lid, 3.15 g of a phosphate buffer (pH7.0), and 3.15 g of a diluted bacterial cell solution, which was prepared by diluting bacterial cells as mentioned above with the phosphate buffer (pH7.0) such that initial activity thereof in a reaction solution became 1460 U, were added. The mixture was stirred while controlling the temperature at 20° C. […] Four hours later, the reaction solution was collected and the concentration of acrylonitrile was measured by gas chromatography (column: PoraPack-PS (manufactured by Waters Corporation), 1 m, 210° C., carrier gas: helium, detector: FID).
as §2, §3

Experiment [3] concerns nitrile hydratase derived from Rhodococcus rhodochrous M8 strain. Description: Example 5: amide compound formation reaction by M8 strain-derived transformant (ATCC12674/pSJ-N01A). The note with it: hydrocyanic acid 2.0 ppm in acrylonitrile, 25° C. As for the experimental part:
(§4) The transformant (ATCC12674/pSJ-N01A) obtained in the above step was inoculated in MYK medium (50 μg/ml kanamycin) and subjected to shaking culture performed at 30° C. for two days. The cultured transformant (1%) was inoculated in GGPK medium (1.5% glucose, 1% monosodium glutamate, 0.1% yeast extract, 0.05% K2HPO4, 0.05% KH2PO4, 0.05% […], 1% CoCl2, 0.1% urea, 50 μg/ml kanamycin, pH7.2). Shaking culture was carried out at 30° C. for three days and bacterial cells were centrifugally collected. Thereafter, the bacterial cells were washed with a 100 mM phosphate buffer (pH7.0) and a bacterial suspension was prepared.
According to Example 1, the effect of propionaldehyde on amide compound formation reaction by M8 strain-derived transformant (ATCC12674/pSJ-N01A) was evaluated.
as §1
To a glass case (internal volume: 13.5 ml) with a lid, 1.00 g of a diluted bacterial-cell solution, which was prepared by diluting bacterial cells as mentioned above with the phosphate buffer (pH7.0) such that the initial amount of the bacterial cells in a reaction solution became 5.6 mg; and a diluted solution, which was prepared by diluting each aldehyde compound with a phosphate buffer (pH7.0) so as to obtain a concentration thereof of 10 ppm, 25 ppm or 50 ppm in a reaction solution, were added; and finally, a phosphate buffer (pH7.0) was added up to a total amount of 9.0 g. The solution obtained was stirred while the temperature thereof was controlled at 25° C. To this solution, acrylonitrile (1.0 g) was added to initiate a reaction. Six hours later, the reaction solution was collected and the concentration of acrylonitrile was measured by gas chromatography (column: PoraPack-PS (manufactured by Waters Corporation), 1 m, 210° C., carrier gas: helium, detector: FID).
as §2, §3

The subject of experiment [4] is nitrile hydratase derived from Pseudonocardia thermophila JCM3095 strain. Description: Example 6: amide compound formation reaction by transformant (ATCC12674/pSJ-N02A). The note with it: propionaldehyde 7 ppm in reaction solution, propionaldehyde/cyan 10.7 mol/mol, hydrocyanic acid 2.0 ppm in acrylonitrile, 25° C. As for the experimental part:
as §4, with “(ATCC12674/pSJ-N02A)” for “(ATCC12674/pSJ-N01A)”
According to Example 1, the effect of propionaldehyde on amide compound formation reaction by transformant (ATCC12674/pSJ-N02A) was evaluated.
Acrylonitrile was prepared so as to have a hydrocyanic acid concentration of 2.0 ppm. […]

The mark [5] stands for this setting: 5 ppm addition in reaction solution.
Setting [6] is: 10 ppm addition in reaction solution.

As for `CC=O` [No. 2, acetaldehyde], the “Concentration Ratio (3.5 hr)” value in the experiment with nitrile hydratase [1] (setting [5]) is given as 7.5%. The “Concentration Ratio (6 hr)” value with nitrile hydratase [1] (setting [5]) came out at 9.2%. Moreover, the “Concentration ratio (4 hr) (acrylonitrile concentration with aldehyde / without aldehyde x100)” value with nitrile hydratase [2] (Example 1: hydrocyanic acid 2.1 ppm, acetaldehyde 10 ppm in acrylonitrile, acetaldehyde/cyan 2.9 mol/mol) is listed as 38.8%; in the experiment on nitrile hydratase [2] (Example 2: hydrocyanic acid 2.1 ppm, acetaldehyde 6 ppm in acrylonitrile, acetaldehyde/cyan 1.8 mol/mol) it was 76.1%; in the experiment on nitrile hydratase [2] (Example 3: hydrocyanic acid 2.1 ppm, acetaldehyde 3 ppm in acrylonitrile, acetaldehyde/cyan 0.9 mol/mol) it was 92.5%; in the experiment with nitrile hydratase [2] (Example 4: hydrocyanic acid 1.1 ppm, acetaldehyde 10 ppm in acrylonitrile, acetaldehyde/cyan 5.6 mol/mol), 9.8%. For the same molecule, the “rate of a reaction that converts acrylonitrile to an amide compound” value with nitrile hydratase [2] (compared to Comparative Example without acetaldehyde, hydrocyanic acid 2.1 ppm or 1.1 ppm) is “high”.
`CCC=O` [No. 3, propionaldehyde]: the “Concentration Ratio (6 hr)” value is reported as 82.7% in experiment [3] (propionaldehyde 10 ppm in reaction solution, propionaldehyde/cyan 22.9 mol/mol); 70.4% in experiment [3] (propionaldehyde 25 ppm in reaction solution, propionaldehyde/cyan 57.1 mol/mol); 60.0% in experiment [3] (propionaldehyde 50 ppm in reaction solution, propionaldehyde/cyan 114.3 mol/mol); 33.3% in experiment [4]; 1.4% with nitrile hydratase [1] (setting [5]). For the same molecule, in the experiment on nitrile hydratase [1] (setting [5]), the “Concentration Ratio (3.5 hr)” value was 2.2%.
`CCCC=O` [No. 4, butyraldehyde]: in the experiment on nitrile hydratase [1] (setting [5]), the “Concentration Ratio (3.5 hr)” value is 3.1% and the “Concentration Ratio (6 hr)” value is reported as 2.7%.
Consider `CCCCCC=O` [No. 5, hexanal], for which, in the experiment with nitrile hydratase [1] (setting [5]), the “Concentration Ratio (3.5 hr)” value is 83.9% and the “Concentration Ratio (6 hr)” value is 17.8%.
The corresponding values for `CCCCCCC=O` [No. 6, heptanal] are 62.1% and 17.6%.
As for `CCCCCCCC=O` [No. 7, octanal], in the experiment on nitrile hydratase [1] (setting [5]), the “Concentration Ratio (3.5 hr)” value was 106.4% and the “Concentration Ratio (6 hr)” value is recorded as 117.5%. Also, in the experiment on nitrile hydratase [1] (setting [6]), the “Concentration Ratio (3.5 hr)” value turned out to be 72.9% and the “Concentration Ratio (6 hr)” value amounted to 11.6%.
For `CCCCCCCCC=O` [No. 8, nonanal], in that order: 97.1%, 81.4%, 80.1% and 35.0%.
With `CCCCCCCCCC=O` [No. 9, decanal], in the experiment with nitrile hydratase [1] (setting [5]), the “Concentration Ratio (3.5 hr)” value was found to be 96.1% and the “Concentration Ratio (6 hr)” value was found to be 67.0%.
Consider `O=CO` [No. 10, formic acid, reference compound], for which, in the experiment on nitrile hydratase [1] (setting [5]), the “Concentration Ratio (3.5 hr)” value is on record as 99.6% and the “Concentration Ratio (6 hr)” value was determined as 88.9%. In addition, in the experiment with nitrile hydratase [1] (setting [6]), the “Concentration Ratio (3.5 hr)” value is reported as 95.1% and the “Concentration Ratio (6 hr)” value turned out to be 94.9%.
With `O=CC=O` [No. 11, dialdehyde oxalate], in the experiment with nitrile hydratase [1] (setting [5]), the “Concentration Ratio (3.5 hr)” value amounted to 33.4% and the “Concentration Ratio (6 hr)” value came to 12.2%.
On to `OC[C@@H](O)[C@@H](O)CO` [No. 12, meso-erythritol, reference compound], for which, in the experiment with nitrile hydratase [1] (setting [5]), the “Concentration Ratio (3.5 hr)” value turned out to be 103.3% and the “Concentration Ratio (6 hr)” value was 118.2%. Besides, in the experiment on nitrile hydratase [1] (setting [6]), the “Concentration Ratio (3.5 hr)” value stood at 97.8% and the “Concentration Ratio (6 hr)” value stood at 97.3%.
Turning to `O=Cc1ccccc1` [No. 15, benzaldehyde], in the experiment on nitrile hydratase [1] (setting [5]), the “Concentration Ratio (3.5 hr)” value is 92.0% and the “Concentration Ratio (6 hr)” value is reported as 66.2%.
On to `O=CC=Cc1ccccc1` [No. 16, cinnamaldehyde], for which, in the experiment with nitrile hydratase [1] (setting [5]), the “Concentration Ratio (3.5 hr)” value came out at 97.0% and the “Concentration Ratio (6 hr)” value was found to be 102.6%. In addition, in the experiment on nitrile hydratase [1] (setting [6]), the “Concentration Ratio (3.5 hr)” value turned out to be 99.2% and the “Concentration Ratio (6 hr)” value is 87.1%.
For the molecule `C=C(C)C1CC=C(C=O)CC1` (stereo not shown) [No. 17, perillaldehyde], in the experiment on nitrile hydratase [1] (setting [5]), the “Concentration Ratio (3.5 hr)” value was found to be 82.8% and the “Concentration Ratio (6 hr)” value came to 59.6%.
For `COc1cc(C=O)ccc1O` [No. 18, vanillin], in that order: 92.9% and 71.7%.
Consider `CC1NC(C)NC(C)N1` (stereo not shown) [No. 19, acetaldehyde ammonia], for which, in the experiment on nitrile hydratase [1] (setting [5]), the “Concentration Ratio (3.5 hr)” value was 30.0% and the “Concentration Ratio (6 hr)” value stood at 3.3%.
As to `C1N2CN3CN1CN(C2)C3` [No. 20, hexamethylenetetramine], in the experiment with nitrile hydratase [1] (setting [5]), the “Concentration Ratio (3.5 hr)” value turned out to be 0.3% and the “Concentration Ratio (6 hr)” value is given as 2.4%.
The corresponding values for paraformaldehyde [No. 14] are 1.1% and 1.1%.
